In patent US20160176914A1, “GLYCOSYLATED CARDIOTONIC STEROIDS” (priority 2013, published 2016):
Where two headings read alike, the source gives them in different places.

Tests used:
α3β1 Na+/K+ ATPase = α3β1 Na+/K+ ATPase (Homo sapiens, UniProt P13637); test: Na+/K+ ATPase pump binding, α3β1 isoform (radioactive displacement assay)
Protocol: (§1) α1/2/3-Na^+/K^+ ATPase pump binding data was assessed for compounds of Table 1.
(§2) Further, from the results, a strong correlation between cancer cell cytotoxicity and α1/3-Na^+/K^+ ATPase pump binding selectivity was observed (see: α-L-amiceto-mono-, di- and tri-saccharides; Scheme 1). In addition, it was observed that mono-saccharides have improved activity and α1/2/3-isoform selectivity. […] The Na^+/K^+ ATPase binding data also correlates with the cytotoxicity data, which can be seen in the binding data of compounds 1.5-1.7 to all three isomers (α1β1/α2β1/α3β1), which decreases proportionally the MTT data (Table 1).

NCI-H460 cells [1] = test: cells; format: cell-based, Human; conditions: Homo sapiens
Protocol: (§3) Human non-small cell lung cancer cells (NCI-H460) were purchased from the American Type Culture Collection (Manassas, Va.). NCI-H460 cells were cultured in RPMI 1640 medium supplemented with 10% bovine fetal serum (FBS), 2 mM L-glutamine and 100-units/ml penicillin/streptomycin. All experiments with NCI-H460 cells were performed in medium enriched with 1% FBS serum, 2 mM L-glutamine and 100-units/ml penicillin/streptomycin. 1% FBS was used due to existing concerns about digitoxin binding to serum proteins.
Cells were seeded overnight in 96 well plates at a concentration of 1×10^4 cells/well, and then treated for 48 h with a log10 scale dilution series of the glycosylated CS compounds (e.g., digitoxin or D6-MA) dissolved in sterile filtered DMSO. Subsequently, 10 μl of 5 mg/ml MTT reagent was added to each well and then incubated for 4 h at 37° C. Isopropanol acidified with 0.04 N HCl was used to dissolve converted dye. Absorbance at 570 nm was measured using an Automated Microplate Reader ELx800 (BioTek, Winooski, Vt.). Each experiment was conducted 4 times with 4 replicate wells per concentration.
(§4) All results are presented as mean±standard deviation. For cell viability, ATPase activity and apoptosis assays, dose-response curves and concentrations that caused 50% effect (i.e. IC50) were calculated for the prepared compounds listed in Tables 1-3 in all the cell lines tested using non-linear regression analysis in GraphPad Prism 5.0 (San Diego, Calif.). Two-way analysis of variance (ANOVA) and unpaired two-tailed Student's t-test with α=0.05 were performed to compare the effect of compounds and administered dose on cell viability, apoptosis and quantified protein expression data. Post-hoc Tukey-Kramer HSD tests were conducted on significant ANOVA results. Results were considered significant when p≦0.05.

NCI-H460 cells [2] = test: Apoptosis assay (Hoechst 33342); format: cell-based; conditions: Homo sapiens, read-out: Anticancer Apoptosis GI50
Protocol: as §3
Cells were seeded overnight in 12 or 24 well plates at a concentration of 1×10^5 cell/ml and subsequently treated with different concentrations of the glycosylated CS compounds for 24 h. After treatment, cells were incubated with […] of Hoechst 33342 for 30 min and analyzed for apoptosis by scoring the percentage of cells having intensely condensed chromatin and/or fragmented nuclei using fluorescence microscopy (Leica Microsystems, Bannockburn, Ill.). Approximately 1,000 nuclei from ten random fields were analyzed for each sample. The apoptotic index was calculated as the percentage of cells with apoptotic nuclei over total number of cells.
as §4

α2β1 Na+/K+ ATPase = α2β1 Na+/K+ ATPase (Homo sapiens, UniProt P50993); test: Na+/K+ ATPase pump binding, α2β1 isoform (radioactive displacement assay)
Protocol: as §1, §2

HCMV = test: Anti-CMV activity assay, inhibition of HCMV replication in infected HFFs; format: cell-based, human Cytomegalovirus (HCMV); conditions: for SI (selectivity index, CC50/EC50): CC50 noninfected HFFs / EC50 infected HFFs
Protocol: It has been observed that the infection of human foreskin fibroblasts (HFF) cells with HCMV causes an up regulation of the α3-isoform of the Na^+/K^+-Pump. Therefore the inhibition of HCMV replication by the compounds described herein was tested using procedure described by Cai, H. et al., in Med. Chem. Lett. 2014, 5, 395-399, which is incorporated by reference in its entirety. Generally, inhibition of Towne HCMV: pp28-luciferase activity was measured in cell lysates of HCMV-infected HFFs collected at 72 h post infection (hpi). Virus DNA yield in supernatants of HCMV-infected cells collected at 96 hpi was measured by real-time PCR. Plaque reduction assay performed at 8 days postinfection. Data represent mean values (±SD) of triplicate determinations from three independent experiments.
Inhibition of TB40 HCMV: HFFs were infected with HCMV-TB40 strain at MOI of 1 pfu/cell and treated with compounds listed in Tables 1-3 for 3 days.
(§5) The glycosylated cardiotonic steroid compounds were tested for their anti-cytomegalovirus (CMV) activity. Specifically, the compounds were tested for the ability to inhibit HCMV replication. For each compound, the anti-HCMV activity in infected HFFs was expressed as EC50, whereas cytotoxicity in noninfected HFFs was expressed as CC50. Selectivity index (SI), defined as CC50/EC50, was calculated for each compound.

[3] = Cytotoxicity in noninfected HFFs (MTT); format: cell-based, human; conditions: human
Protocol: as §5

α1β1 Na+/K+ ATPase = α1β1 Na+/K+ ATPase (Homo sapiens, UniProt P05023); test: Na+/K+ ATPase pump binding, α1β1 isoform (radioactive displacement assay)
Protocol: as §1, §2

noninfected HFFs = test: Cytotoxicity in noninfected HFFs (MTT); format: cell-based, human
Protocol: as §5

[4] = NCI-H460, 48 h, read-out: Anticancer MTT IC50
[5] = anti-HCMV activity in infected HFFs, read-out: EC50

| Compound | Kd (α3β1 Na+/K+ ATPase) | IC50 (NCI-H460 cells [1]; [4]) | GI50 (NCI-H460 cells [2]; NCI-H460, 24 h) | Kd (α2β1 Na+/K+ ATPase) | SI (selectivity index, CC50/EC50) (HCMV) | EC50 (HCMV; Human betaherpesvirus 5) | CC50 [3] | Kd (α1β1 Na+/K+ ATPase) | EC50 (HCMV; [5]) | CC50 (noninfected HFFs) | other results |
| --- | --- | --- | --- | --- | --- | --- | --- | --- | --- | --- | --- |
| CC1O[C@@H](O[C@H]2CCC3(C)C(CC[C@@H]4C3CCC3(C)[C@@H](C5=CC(=O)OC5)CC[C@]43O)C2)C(O)C(O)[C@H]1O (stereo partly drawn) [Compound 1.2, digitoxigenin α-L-rhamnopyranoside] | 19 nM | 47 nM | 2 nM | 23 nM | 173 | 4.77 ± 0.23 nM | 664 ± 185 nM | 27 nM | – | – | SI (selectivity index, CC50/EC50) (HCMV; listed as α-L-Rhamnose (1.2)): 139.25 |
| CC1O[C@@H](O[C@H]2CCC3(C)C(CC[C@@H]4C3CCC3(C)[C@@H](C5=CC(=O)OC5)CC[C@]43O)C2)CC[C@H]1O (stereo partly drawn) [Compound 1.5, digitoxigenin α-L-amecitopyranoside] | 26 nM | 48 nM | 3 nM | 38 nM | 139 | 3.77 ± 0.08 nM | 655 ± 177 nM | 56 nM | – | – | SI (selectivity index, CC50/EC50) (HCMV; listed as α-L-Amicetose (1.5)): 173.61 |
| CC1OC(OC2CCC(OC3CCC(OC4CCC5(C)C(CCC6C5CCC5(C)C(C7=CC(=O)OC7)CCC65O)C4)OC3C)OC2C)CCC1O (stereo not drawn) [Compound 1.7] | 736 nM | 3960 nM | – | 149 nM | – | – | – | 670 nM | – | – | – |
| C[C@H]1O[C@@H](O[C@H]2[C@@H](O)C[C@H](O[C@H]3[C@@H](O)C[C@H](O[C@H]4CC[C@@]5(C)[C@H](CC[C@@H]6[C@@H]5CC[C@]5(C)[C@@H](C7=CC(=O)OC7)CC[C@]65O)C4)O[C@@H]3C)O[C@@H]2C)C[C@H](O)[C@@H]1O [Digitoxin, reference compound] | – | – | – | – | 120.46 | 23.3 ± 0.67 nM | 2810 ± 668 nM | – | – | – | Kd (α3β1 Na+/K+ ATPase; third KD column of Table 4, head printed α1β1 a second time, read-out: Na+/K+ATPase inhibition KD, α1β1): 36 nM; IC50 (NCI-H460 cells [1]; NCI-H460, Table 4, 48 h treatment, unit inferred, read-out: Anticancer MTT IC50): 357 nM; IC50 (NCI-H460 cells [1]; NCI-H460, Table 5, H460 cells, compounds of Table 2, read-out: IC50): 157 nM; GI50 (NCI-H460 cells [2]; NCI-H460, Table 4, 24 h treatment, unit inferred): 11 nM; Kd (α2β1 Na+/K+ ATPase; second KD column of Table 4, read-out: Na+/K+ATPase inhibition KD, α2β1): 38 nM; SI (selectivity index, CC50/EC50) (HCMV; listed as digitoxin): 120; Kd (α1β1 Na+/K+ ATPase; first KD column of Table 4, read-out: Na+/K+ATPase inhibition KD, α1β1): 80 nM |
| α-D-Amicetose | – | – | – | – | – | – | – | – | 37.5 ± 0.52 nM | 1110 ± 273 nM | – |
| α-D-Rhamnose | – | – | – | – | – | – | – | – | 26.6 ± 0.88 nM | 2270 ± 551 nM | – |
